The source made the active and inactive calls. No cut-off for these calls is given here.
Legend:
[1] = biological target: T1, Prostaglandin D2 receptor 2 (Homo sapiens, UniProt Q9Y5Y4); assay: Displacement of […] from human CRTh2 receptor expressed in CHO cells; assay type: cell-based
T1 sequence (Q9Y5Y4 whole entry): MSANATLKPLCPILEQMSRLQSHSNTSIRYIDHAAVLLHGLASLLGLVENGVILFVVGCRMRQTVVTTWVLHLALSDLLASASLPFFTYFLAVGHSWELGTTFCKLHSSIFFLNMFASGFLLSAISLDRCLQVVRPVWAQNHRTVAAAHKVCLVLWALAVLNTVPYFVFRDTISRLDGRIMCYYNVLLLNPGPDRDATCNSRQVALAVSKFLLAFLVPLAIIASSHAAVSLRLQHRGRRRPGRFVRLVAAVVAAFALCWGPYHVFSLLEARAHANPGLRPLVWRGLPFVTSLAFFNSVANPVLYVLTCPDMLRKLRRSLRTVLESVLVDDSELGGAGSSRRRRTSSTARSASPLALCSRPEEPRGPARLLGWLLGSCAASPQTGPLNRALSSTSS

Eosinophil [2] = assay: Inhibition of 13,14-dihydro-15-ketoprostaglandin D2-stimulated human eosinophils shape change; assay type: functional, cell-based
[3] = biological target: T2, Prostaglandin D2 receptor (Homo sapiens, UniProt Q13258); assay: Binding affinity at prostanoid DP receptor
T2 sequence (Q13258 whole entry): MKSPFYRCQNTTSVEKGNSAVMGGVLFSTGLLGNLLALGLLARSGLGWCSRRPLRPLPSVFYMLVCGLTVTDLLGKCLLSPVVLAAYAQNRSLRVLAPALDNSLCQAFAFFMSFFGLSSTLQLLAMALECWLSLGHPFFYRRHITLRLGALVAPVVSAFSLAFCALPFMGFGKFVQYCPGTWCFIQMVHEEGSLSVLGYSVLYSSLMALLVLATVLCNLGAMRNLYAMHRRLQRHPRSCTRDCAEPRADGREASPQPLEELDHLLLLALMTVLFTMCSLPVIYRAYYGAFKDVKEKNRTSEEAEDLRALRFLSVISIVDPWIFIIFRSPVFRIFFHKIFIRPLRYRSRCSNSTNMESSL

[4] = biological target: Prostaglandin E2 receptor EP2 subtype (Homo sapiens, UniProt P43116); assay: Binding affinity at prostanoid EP2 receptor
Thromboxane A2 receptor = biological target: T3, Thromboxane A2 receptor (Homo sapiens, UniProt P21731); assay: Binding affinity at prostanoid TP receptor
T3 sequence (P21731 whole entry): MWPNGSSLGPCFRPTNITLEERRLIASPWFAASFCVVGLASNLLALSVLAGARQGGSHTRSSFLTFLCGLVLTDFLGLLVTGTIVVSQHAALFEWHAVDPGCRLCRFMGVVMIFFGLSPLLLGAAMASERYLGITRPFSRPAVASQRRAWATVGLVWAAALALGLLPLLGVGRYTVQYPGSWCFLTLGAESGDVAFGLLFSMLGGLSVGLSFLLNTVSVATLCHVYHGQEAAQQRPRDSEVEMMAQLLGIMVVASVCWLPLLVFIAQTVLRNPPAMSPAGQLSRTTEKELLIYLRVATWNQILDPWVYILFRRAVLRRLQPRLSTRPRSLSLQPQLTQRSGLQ

Eosinophil [5] = assay: Inhibition of 13,14-dihydro-15-ketoprostaglandin D2-stimulated human eosinophils shape change upto 10 uM; assay type: functional, cell-based
Cytochrome P450 3A4 = Cytochrome P450 3A4 (Homo sapiens, UniProt P08684); assay: Inhibition of CYP3A4; assay type: ADME
Cytochrome P450 2D6 = Cytochrome P450 2D6 (Homo sapiens, UniProt P10635); assay: Inhibition of CYP2D6; assay type: ADME
Cytochrome P450 1A2 = biological target: T4, Cytochrome P450 1A2 (Homo sapiens, UniProt P05177); assay: Inhibition of CYP1A2; assay type: ADME
T4 sequence (P05177 whole entry): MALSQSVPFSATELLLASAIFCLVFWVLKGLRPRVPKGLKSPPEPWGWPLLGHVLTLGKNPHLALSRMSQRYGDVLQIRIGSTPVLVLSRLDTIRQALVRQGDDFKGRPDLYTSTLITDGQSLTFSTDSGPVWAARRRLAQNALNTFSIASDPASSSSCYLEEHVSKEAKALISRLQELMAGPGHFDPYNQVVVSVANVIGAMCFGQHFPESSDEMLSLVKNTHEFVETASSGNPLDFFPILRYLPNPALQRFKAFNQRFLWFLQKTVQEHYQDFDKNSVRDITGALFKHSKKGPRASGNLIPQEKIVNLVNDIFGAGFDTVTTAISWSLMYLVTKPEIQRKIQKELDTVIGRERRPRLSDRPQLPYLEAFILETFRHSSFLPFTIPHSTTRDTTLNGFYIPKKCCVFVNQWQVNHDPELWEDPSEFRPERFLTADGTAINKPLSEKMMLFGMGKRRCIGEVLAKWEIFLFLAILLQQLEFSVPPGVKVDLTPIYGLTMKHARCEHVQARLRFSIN

Cytochrome P450 2C19 = Cytochrome P450 2C19 (Homo sapiens, UniProt P33261); assay: Inhibition of CYP2C19; assay type: ADME
Cytochrome P450 2C9 = Cytochrome P450 2C9 (Homo sapiens, UniProt P11712); assay: Inhibition of CYP2C9; assay type: ADME
[6] = Intrinsic clearance in human microsomes; assay type: ADME, Microsome
[7] = Intrinsic clearance in rat microsomes; assay type: ADME, Microsome
[8] = Permeability from apical to basolateral side of Caco-2 cell membrane; assay type: ADME, cell-based; details: human, read-out: permeability
[9] = Permeability from basolateral to apical side of Caco-2 cell membrane; assay type: ADME, cell-based; details: human, read-out: permeability
[10] = Half life in rat at 0.5 mg/kg, iv; assay type: ADME, organism-based; parameters: dose 0.5 mg/kg, route intravenous; details: in vivo
[11] = Clearance in rat; assay type: ADME, organism-based; details: in vivo
[12] = Volume of distribution at steady state in rat; assay type: ADME, organism-based; details: in vivo, read-out: Vdss
[13] = Oral bioavailability in rat at 2 mg/kg; assay type: ADME, organism-based; details: in vivo
[14] = AUCall in rat; assay type: ADME, organism-based; details: plasma
[15] = Cmax in rat; assay type: ADME, organism-based; details: in vivo

Sequence of Cytochrome P450 2D6 (P10635 whole entry): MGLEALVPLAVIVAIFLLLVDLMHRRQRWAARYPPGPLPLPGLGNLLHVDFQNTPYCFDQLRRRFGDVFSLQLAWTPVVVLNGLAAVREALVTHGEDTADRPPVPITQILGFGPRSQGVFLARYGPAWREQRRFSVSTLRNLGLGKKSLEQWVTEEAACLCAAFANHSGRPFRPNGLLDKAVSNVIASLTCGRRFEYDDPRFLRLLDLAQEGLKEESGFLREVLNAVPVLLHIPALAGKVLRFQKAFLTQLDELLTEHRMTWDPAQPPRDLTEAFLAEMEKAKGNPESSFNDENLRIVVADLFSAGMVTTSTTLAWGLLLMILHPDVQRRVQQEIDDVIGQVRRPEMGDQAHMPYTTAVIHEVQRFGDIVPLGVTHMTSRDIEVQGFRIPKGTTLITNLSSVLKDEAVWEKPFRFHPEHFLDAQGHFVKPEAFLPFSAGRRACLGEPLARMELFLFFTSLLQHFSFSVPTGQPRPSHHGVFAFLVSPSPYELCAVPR
Sequence of Cytochrome P450 2C19 (P33261 whole entry): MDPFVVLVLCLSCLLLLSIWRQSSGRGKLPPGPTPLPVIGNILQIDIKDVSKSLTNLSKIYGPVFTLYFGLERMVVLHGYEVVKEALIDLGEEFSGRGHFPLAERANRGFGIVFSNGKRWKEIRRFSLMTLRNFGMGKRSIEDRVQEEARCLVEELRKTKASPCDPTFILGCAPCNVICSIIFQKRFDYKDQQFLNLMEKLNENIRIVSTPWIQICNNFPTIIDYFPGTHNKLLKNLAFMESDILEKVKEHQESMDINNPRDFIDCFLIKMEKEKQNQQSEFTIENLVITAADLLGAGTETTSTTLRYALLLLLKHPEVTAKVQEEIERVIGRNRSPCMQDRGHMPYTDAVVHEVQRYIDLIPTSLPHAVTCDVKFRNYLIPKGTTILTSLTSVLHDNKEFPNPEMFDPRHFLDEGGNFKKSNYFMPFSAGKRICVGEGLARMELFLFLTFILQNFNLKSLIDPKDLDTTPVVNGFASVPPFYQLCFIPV
Sequence of Cytochrome P450 2C9 (P11712 whole entry): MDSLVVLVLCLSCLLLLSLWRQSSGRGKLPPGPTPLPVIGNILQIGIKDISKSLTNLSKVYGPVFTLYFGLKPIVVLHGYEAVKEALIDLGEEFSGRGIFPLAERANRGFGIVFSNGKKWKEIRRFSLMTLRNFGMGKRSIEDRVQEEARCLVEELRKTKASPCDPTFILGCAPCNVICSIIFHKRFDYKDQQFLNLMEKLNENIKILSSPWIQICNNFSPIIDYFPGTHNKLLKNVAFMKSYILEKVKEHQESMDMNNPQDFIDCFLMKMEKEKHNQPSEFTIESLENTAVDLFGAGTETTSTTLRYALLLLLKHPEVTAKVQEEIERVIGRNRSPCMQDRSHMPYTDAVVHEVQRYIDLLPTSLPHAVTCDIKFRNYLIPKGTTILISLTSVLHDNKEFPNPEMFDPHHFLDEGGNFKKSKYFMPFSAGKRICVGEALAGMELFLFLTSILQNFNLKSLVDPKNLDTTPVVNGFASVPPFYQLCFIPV
Sequence of Prostaglandin E2 receptor EP2 subtype (P43116 whole entry): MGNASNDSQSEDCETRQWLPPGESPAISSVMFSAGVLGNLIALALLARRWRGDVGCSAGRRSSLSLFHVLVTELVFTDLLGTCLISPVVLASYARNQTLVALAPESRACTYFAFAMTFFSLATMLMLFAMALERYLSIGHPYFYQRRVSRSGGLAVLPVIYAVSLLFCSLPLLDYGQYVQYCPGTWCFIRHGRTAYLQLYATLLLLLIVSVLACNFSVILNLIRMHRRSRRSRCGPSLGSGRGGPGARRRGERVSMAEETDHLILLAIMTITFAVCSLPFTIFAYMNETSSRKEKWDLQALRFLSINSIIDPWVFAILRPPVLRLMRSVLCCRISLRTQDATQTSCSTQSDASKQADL
Sequence of Cytochrome P450 3A4 (P08684 whole entry): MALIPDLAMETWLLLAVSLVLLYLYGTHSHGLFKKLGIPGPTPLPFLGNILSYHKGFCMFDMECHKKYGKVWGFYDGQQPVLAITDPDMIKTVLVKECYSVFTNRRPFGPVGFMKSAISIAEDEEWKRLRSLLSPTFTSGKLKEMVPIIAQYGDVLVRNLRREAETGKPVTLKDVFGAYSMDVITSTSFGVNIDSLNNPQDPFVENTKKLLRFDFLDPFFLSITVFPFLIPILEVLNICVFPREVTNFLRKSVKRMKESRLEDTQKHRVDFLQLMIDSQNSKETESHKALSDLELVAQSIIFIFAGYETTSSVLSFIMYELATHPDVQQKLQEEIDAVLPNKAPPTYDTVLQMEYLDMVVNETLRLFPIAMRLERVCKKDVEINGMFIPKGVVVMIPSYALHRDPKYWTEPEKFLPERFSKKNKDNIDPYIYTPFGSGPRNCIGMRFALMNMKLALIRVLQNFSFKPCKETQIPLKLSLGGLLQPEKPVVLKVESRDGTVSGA

SMILES	Ki [1] [µM]	IC50 (Eosinophil [2]) [µM]	Ki [3] [µM]	further results
CC1(c2cc(Cl)ccc2OCC(=O)O)CCCCC1	0.09	0.451	1.21	–
O=C(O)COc1ccc(Br)cc1C1CCCCC1	0.083	0.448	5.9	–
O=C(O)COc1ccccc1C1CCCCC1	0.311	–	> 10	–
Cc1ccc(OCC(=O)O)c(C2CCCCC2)c1	0.353	–	> 10	–
O=C(O)COc1ccc(-c2ccc(F)cc2)cc1C1CCCCC1	0.099	–	6.4	–
N#Cc1ccc(OCC(=O)O)c(C2CCCCC2)c1	0.23	0.052	> 10	–
O=C(O)COc1ccc(F)cc1C1CCCCC1	0.446	–	> 10	–
C=CCc1cc(Cl)ccc1OCC(=O)O	5.13	–	4.74	–
O=C(O)COc1ccc(C(F)(F)F)cc1C1CCCCC1	0.02	0.172	> 10	–
COc1ccc(OCC(=O)O)c(C2CCCCC2)c1	0.782	–	> 10	–
Clc1ccc(OCc2nnn[nH]2)c(C2CCCCC2)c1	> 10	–	> 10	–
Cc1cc(Cl)ccc1OCC(=O)O [METAXON]	> 10	–	> 10	–

Continued, in another order:

Ki [1] [µM]	IC50 (Eosinophil [2]) [µM]	Ki [3] [µM]	SMILES	further results
0.154	0.093	7.6	O=C(O)COc1ccc(Cl)cc1C1CCCCC1	Ki [4]: 3 µM; Ki (Thromboxane A2 receptor): > 10 µM
0.799	–	> 10	O=C(O)CCOc1ccc(Cl)cc1C1CCCCC1	–
0.059	0.248	1.88	O=C(O)COc1ccc(Cl)cc1C1CCCCCC1	Activity (Eosinophil [5]): inactive; IC50 (Cytochrome P450 3A4): > 10 µM; IC50 (Cytochrome P450 2D6): > 10 µM; IC50 (Cytochrome P450 1A2): > 10 µM; IC50 (Cytochrome P450 2C19): > 10 µM; IC50 (Cytochrome P450 2C9): > 10 µM; microsomal CLint [6]: 109 µL/min/mg; microsomal CLint [7]: 205 µL/min/mg; Papp A→B [8]: 8.4 ×10⁻⁶ cm/s; Papp B→A [9]: 21.4 ×10⁻⁶ cm/s; half-life [10]: 1.18 h; clearance [11]: 7.3 mL/min/kg; Vd [12]: 0.52 L/kg; bioavailability [13]: 58%; AUC [14]: 11.6 µM·h; Cmax [15]: 4.7 µM
1.99	–	> 10	O=C(O)CCCOc1ccc(Cl)cc1C1CCCCC1	–
–	–	4.49	C[C@H](Oc1ccc(Cl)cc1C1CCCCC1)C(=O)O	–
> 10	–	> 10	OCCOc1ccc(Cl)cc1C1CCCCC1	–
> 10	–	> 10	CS(=O)(=O)NC(=O)COc1ccc(Cl)cc1C1CCCCC1	–
–	–	> 10	C[C@@H](Oc1ccc(Cl)cc1C1CCCCC1)C(=O)O	–
3.28	–	8.9	COC(=O)COc1ccc(Cl)cc1C1CCCCC1	–
0.15	1.01	4.8	O=C(O)COc1ccc(Cl)cc1C1CCCC1	–

Reference: ChEMBL document CHEMBL1140006, “2-Cycloalkyl phenoxyacetic acid CRTh2 receptor antagonists” (Bioorg Med Chem Lett, 2007)
